Data set [1] is described as follows: Human liver microsome stability. As to conditions: for remaining at 2 h, 3 μM / half-life at 3 μM: human, microsomes; for remaining at 2 h, 3 μM: HLM % remaining; for remaining at 2 h, 3 μM / HLM % remaining: relative percent remaining of prodrug at 120 min; for half-life at 3 μM: HLM t1/2, HLM 1 mg/mL. The method, then: Human liver microsomes (HLMs, 20 mg/mL) and CD-1 mouse liver microsomes (MLMs, 20 mg/mL) were purchased from Xenotech. NADPH was purchased from Sigma-Aldrich and prepared in 10 mM stock solutions of distilled H2O (Invitrogen UltraPure). […] Test compounds and positive controls were initially dissolved in MeOH to make 10 mM stock solutions. Sample solutions were then further diluted in 70/30 MeOH/H2O to 500 μM. Next, the reactions were prepared by mixing human or mouse liver microsomes (55 μL) with potassium phosphate buffer (100 mM, 928 μL) in 1.5 mL Eppendorf tubes. The test compounds (6.6 μL of 500 μM solution) were subsequently added to the suspensions, and the reaction mixtures were incubated at 37 °C for 5 min. Afterward, the liver microsome reactions were initiated with 110 μL of 10 mM NADPH and further incubated at 37 °C for the designated time course of the study. […] Each test compound was run in tandem with positive and negative control experiments for quality assurance. Positive control reactions were conducted at a final volume of 550 μL for a single run of each time point.
For both LM and plasma stability assays, each data point was analyzed in duplicate using in-between blank washes to avoid carry over and to equilibrate the column for the subsequent runs. Averages of these duplicate for individual compounds at each time point were then normalized to the data at 0 min, representing 100% test compound remaining or 0% metabolism. Half-lives (t1/2) were calculated by plotting ln of % test compound remaining versus time and performing linear regression to determine slope.
Metabolic Stability Assays
Liver Microsome Stability
Liver Microsome Stability Assay Setup Example
Quenching Mixture: 100 µL MeOH with ISTD (2 µM d5-7-ethoxycoumarin).
Final Volume After Quenching: 200 µL (100 µL from reaction mixture + 100 µL quencher
solution; ISTD final concentration of 1.0 µM).
For orientation: Liver microsomes are vesicles of endoplasmic reticulum, rich in cytochrome P450 enzymes.

Data set [2] in a line: Solubility in antiviral/cytotoxicity assay medium. It counts as physicochemical. As to conditions: despite formulation with HSA. The source says: Nevertheless, due to the promising metabolic profile of 2i and 2j, our lab is continuing to analyze TXL analogs with chain lengths beyond 20 atoms and will disclose a report in the future. However, for the sake of this study, 2a remained as the most pharmacologically attractive starting point for ω-functionalization.

The conditions of data set [3]: dogs; cited from earlier work.
For data set [4] the following is noted: depending on food intake; cited from earlier work.
Data set [5] has as its system HepaRG cells. Nature of the data set: HepaRG cellular uptake. The settings on record: for mean prodrug concentration in HepaRG cells: 20 µM; for HepaRG Cmax: 20 μM, HSA formulation 5:1, recorded after 3 h incubation.
From the text: (§1) Naturally, due the metabolic complexity of HepaRG cells, we specifically analyzed prodrug cellular uptake and stability, as represented by Cmax and intrinsic clearance (Clint,u) accordingly (Figure 7 and Table 9).
(§2) The HepaRG cell line (HPRGC10, Thermo Fisher Scientific) was used to evaluate the cellular permeability and metabolic stability for select final compounds in vitro. The cells were initially thawed with working media composed of HepaRG Thaw, Plate, & General Purpose Medium Supplement (HPRG670), Williams Medium E (100 mL), and GlutaMax (1 mL), all purchased from Thermo Fisher Scientific. […] After the thawing medium was aspirated from each well, the cells were cultured for an additional 6 days with working media consisting of HepaRG Maintenance/Metabolism Medium Supplement (HPRG720), Williams Medium E (500 mL), and GlutaMax (1 mL), all purchased from Thermo Fisher Scientific. Upon completing the 7-day culture period, HepaRG cells were plated in enough wells to allow for duplicate analysis of prodrugs in two independent cellular uptake or metabolic stability experiments. All studied compounds were formulated with human serum albumin (HSA, 5:1 compound to HSA molar ratio) and subsequently diluted to a 20 μM final concentration with assay medium composed of serum-free INVITROGRO HI Medium and TORPEDO Antibiotic Mix purchased from BioIVT. For cellular uptake determinations, the maintenance/metabolism medium was first aspirated from each well, and then the plated cells were spiked with 1.0 mL of test compound stock solution. Subsequently, the plate was incubated at 37 °C under 5% CO2 environment over the desired time course (seven data points/compound). Blank wells not treated with prodrug were included in assay runs as controls and initial time points (0 min). At each time point, the test compound solution was removed from the appropriate wells, and the plated cells were washed with 1.0 mL of DPBS twice. The HepaRG cells were then extracted with 500 μL of cold ISTD solution (1 μM 7-ethoxy-d5-coumarin in 70/30 MeOH/H2O), and the quenched aliquots were centrifuged at 15,000 g for 10 min at 4 °C. […] After obtaining prodrug Cmax and Tmax values from the cellular uptake assay, HepaRG metabolic stability was then assessed. Following the initial 7-day culture procedure, the maintenance/metabolism medium was aspirated from each well, and the plated cells were spiked with 1.0 mL of test compound stock solution. […] The test compound solution was then removed from each well and replaced with untreated dilution medium (i.e., serum-free INVITROGRO HI Medium and TORPEDO Antibiotic Mix), initializing the stability determination. The HepaRG plate was once more incubated at 37 °C under 5% CO2 atmosphere over the desired time course (nine data points/compound), and sample preparation and analysis were handled in identical fashion to cellular uptake experiments.
For data set [6] the following is noted: plasma, p.o. 10 mg/kg; cited from earlier work.
Data set [7] is described as follows: in vitro. As to conditions: human, HepaRG Cmax, 20 μM, HSA formulation 5:1, recorded after 3 h incubation.
From the text: as §1, §2
The nature of data set [8]: in vitro. As to conditions: human, other cell line.
From the text: as §1, §2
In data set [9] the test system is HepaRG cells. Nature of the data set: HepaRG cellular metabolic stability. As to conditions: for HepaRG t1/2: after 3 h loading at 20 μM, 37 °C; for HepaRG Clint,u: calculated from cellular t1/2.
From the text: as §1, §2
For data set [10] the following is noted: liver, p.o. 10 mg/kg; cited from earlier work.
A short description of data set [11]: Cellular cytotoxicity (cell viability, CellTiter 96 or resazurin). As to conditions: human, CC50, HEK293T cells, compounds formulated with HSA (5:1).
The next data set in a line: HepaRG cellular uptake. As to conditions: human, HepaRG Cmax, 20 μM, HSA formulation 5:1, recorded after 3 h incubation.
Data set [12] relates to HIV-1 subtype C strain MJ4. More on the design: method as in PMID 34459598. The settings on record: previously reported lead; cited from earlier work.
Data set [13] in a line: HepaRG cellular metabolic stability. The settings on record: human, other cell line.
From the text: as §1, §2
The subject of the next data set is HEK293T cells. More on the design: method as in PMID 34459598. As to conditions: previously reported lead; cited from earlier work.
Setting [14] is: 3 μM compound, NADPH, 37 °C, 120 min course.
The mark [15] stands for this setting: HepaRG Clint,u, calculated from cellular t1/2.
Setting [16] is: HepaRG t1/2, after 3 h loading at 20 μM, 37 °C.

These results are taken from PMC11513920, “Building Metabolically Stable and Potent Anti-HIV Thioether-Lipid Analogues of Tenofovir Exalidex: A thorough Pharmacological Analysis” (Journal of Medicinal Chemistry, 2024).

As a reminder, the share remaining is what is left of the initial amount, in per cent. In general, half-life refers to the time needed for the level to fall by half in the phase considered. A higher half-life goes with slow loss. The Cmax is the peak of the concentration-time curve. By hepatocyte CLint is commonly meant the capacity of the preparation to metabolise the compound, expressed as a volume cleared per time. Broadly, the CC50 is the concentration that lowers cell viability or growth by half. In general, IC50 refers to the concentration that inhibits the measured activity by half.

Molecules are shown by their SMILES. Where “and” joins values, the source holds several entries; their conditions need not be identical. Equal values may be shown once. Where a name gives a salt, the structure may show the parent alone. Read-outs that look alike come from different tables or passages of the source. Bounds are passed on as bounds.

Regarding `CCCCCCCCCCCCCCCCCCSCCCOP(=O)(O)CO[C@H](C)Cn1cnc2c(N)ncnc21.N` [2i], in data set [1], the fraction remaining at 2 h, 3 μM is 95% and the HLM % remaining is > 95%. Moreover, the half-life at 3 μM in data set [1] (setting [14]) is > 2 h. For the same molecule, the “solubility in the assay medium” value in [2] is reported as “poor solubility”.
On the same counts, the results for `CCCCCCCCCCCCCCCCCCCCSCCCOP(=O)(O)CO[C@H](C)Cn1cnc2c(N)ncnc21.N` [2j] are 95%, > 95%, > 2 h and “poor solubility”.
Turning to `CC(C)OC(=O)[C@H](C)N[P@](=O)(CO[C@H](C)Cn1cnc2c(N)ncnc21)Oc1ccccc1` [TAF, tenofovir alafenamide], the “share of oral dose undergoing hepatic processing” value in data set [3] was 65%.
With `CC(C)OC(=O)OCOP(=O)(CO[C@H](C)Cn1cnc2c(N)ncnc21)OCOC(=O)OC(C)C` [TDF, tenofovir disoproxil fumarate], the oral bioavailability in data set [4] is 25–40%.
`CCCCCCCCCCCCCCCCOCCCOP(=O)(O)CO[C@H](C)Cn1cnc2c(N)ncnc21` [TXL, tenofovir exalidex]: the “mean prodrug concentration in HepaRG cells” value with HepaRG cells [5] (0.5 h) was 258.83 ng/mL; with HepaRG cells [5] (1 h) it was 311.46 ng/mL; in the data set with HepaRG cells [5] (2 h) it was 378.66 ng/mL; in the data set with HepaRG cells [5] (3 h) it was 397.09 ng/mL; in the data set on HepaRG cells [5] (5 h), 468.27 ng/mL; in the data set on HepaRG cells [5] (7 h), 536.47 ng/mL. In addition, the “HepaRG Cmax” value in the data set on HepaRG cells [5] came out at 0.3971 ± 0.0014 µg/mL. The entries for the “Prodrug AUC0-24h” value in data set [6] and in [10] were 0.301 µg·h/mL and 4970 ng·h/mL, respectively. Also, the “Prodrug Cmax” value was 0.125 µg/mL in data set [6] and 2.73 µg/mL in [10]. Moreover, the “Prodrug Tmax” value in data set [6] and in [10] was 1.00 h throughout. Besides, the “Prodrug t1/2” value in data set [6] was 2.92 h. The k in [6] is listed as 0.237. Besides, in data set [1] (HLM 1 mg/mL, 3 μM compound, NADPH, 37 °C, 120 min course), the “HLM t1/2” value is 42 min and 41.6 ± 9.0 ^d min. Also, the Cmax in “in vitro [7]” worked out at 0.397 µg/mL. In addition, the hepatocyte CLint in the data set “in vitro [8]” (setting [15]) is ~29 µL/min/1e6 cells. Also, the half-life in “in vitro [8]” (setting [16]) lay within 0.717 to 0.733 h. Also, the “HepaRG t1/2” value in the data set with HepaRG cells [9] was determined as 0.738 ± 0.0083 h. Further, the “HepaRG Clint,u” value in the data set with HepaRG cells [9] is listed as 28.5 μL/min/million cells. In addition, the CC50 at 48 h in data set [11] came out at 97.6 ± 2.7 µM.
`C[C@H](Cn1cnc2c(N)ncnc21)OCP(=O)(O)OCCCOCCCCCCCCCCCCCCCC(F)(F)F.N` [compound 1]: the “mean prodrug concentration in HepaRG cells” value amounted to 141.43 ng/mL in the data set with HepaRG cells [5] (0.5 h); 180.34 ng/mL with HepaRG cells [5] (1 h); 319.83 ng/mL in the data set with HepaRG cells [5] (2 h); 337.43 ng/mL in the data set with HepaRG cells [5] (3 h); 321.56 ng/mL in the data set on HepaRG cells [5] (5 h); 417.13 ng/mL in the data set on HepaRG cells [5] (7 h). Moreover, the “HepaRG Cmax” value in the data set with HepaRG cells [5] is 0.3374 ± 0.001 µg/mL. In “HepaRG cellular uptake”, the Cmax at 3 h, 20 μM is 0.337 µg/mL. In addition, in [12], the IC50 is 0.049 ± 0.01 µM. Also, the “Prodrug AUC0-24h” value is 1.28 µg·h/mL in data set [6] and 109,000 h·ng/mL in [10]. Also, the figures for the “Prodrug Cmax” value in data set [6] and in [10] were 0.125 µg/mL and 8.71 µg/mL, respectively. Besides, the “Prodrug Tmax” value in data set [6] is given as 2.00 h. Further, the “Prodrug t1/2” value in data set [6] was 8.66 h. Also, the k in data set [6] is given as 0.080. Besides, the “HepaRG t1/2” value in the data set on HepaRG cells [9] amounted to 0.715 ± 0.0083 h. The “HepaRG Clint,u” value in the data set on HepaRG cells [9] is on record as 29.4 μL/min/million cells. The hepatocyte CLint at 20 μM in data set [13] (setting [15]) is ~29 µL/min/1e6 cells. The molecule also came in with a half-life at 20 μM in data set [13] (setting [16]) of 0.717 to 0.733 h. The CC50 in the data set with HEK293T cells was > 100 µM.
